{"source": "patent US12221423B1", "about": "“3-(3-fluorophenyl)-5-(4-methoxybenzylthio)-4-phenyl-4H-1,2,4-triazole as an antimicrobial compound” (KING FAISAL UNIVERSITY, priority 2023, dated 2025)", "assay_type_in_all_cases": "cell-based", "key": {"[1]": {"tested_on": "Chrysosporium keratinophilum", "experiment": "Agar plate disc-diffusion, antifungal inhibition zone", "settings": "Sabouraud's dextrose agar, 72 hours", "description": "(§1) The agar plate disc-diffusion method was applied. […] The discs were then placed onto the surface of agar plates (nutrient agar for bacteria and Sabouraud's dextrose agar for fungi) seeded with the test organism. Each plate contained 15 mL of the agar medium, previously seeded with 0.2 mL of the broth culture of each organism pregrown for 18 hours. The plates were incubated at 37° C. for 48 hours, and 72 hours for fungi. The inhibition zones were measured in mm. Discs impregnated with DMSO were used as a control, and its inhibition zone was subtracted from the tested compound actual inhibition zone."}, "Aspergillus flavus": {"tested_on": "Aspergillus flavus", "experiment": "Agar plate disc-diffusion, antifungal inhibition zone", "settings": "Sabouraud's dextrose agar, 72 hours", "description": "as §1"}, "Pseudomonas aeruginosa": {"tested_on": "Pseudomonas aeruginosa", "experiment": "Agar plate disc-diffusion, antibacterial inhibition zone", "settings": "Pseudomonas aeruginosa (Gram negative), nutrient agar, 37° C., 48 hours", "description": "as §1"}, "Staphylococcus aureus": {"tested_on": "Staphylococcus aureus", "experiment": "Agar plate disc-diffusion, antibacterial inhibition zone", "settings": "Staphylococcus aureus (Gram positive), nutrient agar, 37° C., 48 hours", "description": "as §1"}, "Escherichia coli": {"tested_on": "Escherichia coli", "experiment": "Agar plate disc-diffusion, antibacterial inhibition zone", "settings": "Escherichia coli (Gram negative), nutrient agar, 37° C., 48 hours", "description": "as §1"}, "Bacillus Cereus": {"tested_on": "Bacillus Cereus", "experiment": "Agar plate disc-diffusion, antibacterial inhibition zone", "settings": "Bacillus Cereus (Gram positive), nutrient agar, 37° C., 48 hours", "description": "as §1"}, "[2]": {"settings": "A = concentration of comp. = 10,000 μL"}, "[3]": {"settings": "B = concentration of comp. = 30,000 μL"}, "[4]": {"settings": "C = concentration of comp. = 50,000 μL"}}}
{"smiles": "COc1ccc(CSc2nnc(-c3cccc(F)c3)n2-c2ccccc2)cc1", "note": "[III, 3-(3-fluorophenyl)-5-(4-methoxybenzylthio)-4-phenyl-4H-1,2,4-triazole]", "values": [{"measurement": "inhibition zone", "setting": "[1]; [2]", "value": 26, "unit": "mm"}, {"measurement": "inhibition zone", "setting": "[1]; [3]", "value": 28, "unit": "mm"}, {"measurement": "inhibition zone", "setting": "[1]; [4]", "value": 42, "unit": "mm"}, {"measurement": "inhibition zone", "setting": "Aspergillus flavus; [2]", "value": 19, "unit": "mm"}, {"measurement": "inhibition zone", "setting": "Aspergillus flavus; [3]", "value": 22, "unit": "mm"}, {"measurement": "inhibition zone", "setting": "Aspergillus flavus; [4]", "value": 31, "unit": "mm"}, {"measurement": "inhibition zone", "setting": "Pseudomonas aeruginosa; [2]", "value": 22, "unit": "mm"}, {"measurement": "inhibition zone", "setting": "Pseudomonas aeruginosa; [3]", "value": 25, "unit": "mm"}, {"measurement": "inhibition zone", "setting": "Pseudomonas aeruginosa; [4]", "value": 36, "unit": "mm"}, {"measurement": "inhibition zone", "setting": "Staphylococcus aureus; [2]", "value": 16, "unit": "mm"}, {"measurement": "inhibition zone", "setting": "Staphylococcus aureus; [3]", "value": 22, "unit": "mm"}, {"measurement": "inhibition zone", "setting": "Staphylococcus aureus; C = concentration of comp.", "value": 34, "unit": "mm"}, {"measurement": "inhibition zone", "setting": "Escherichia coli; [2]", "value": 27, "unit": "mm"}, {"measurement": "inhibition zone", "setting": "Escherichia coli; [3]", "value": 35, "unit": "mm"}, {"measurement": "inhibition zone", "setting": "Escherichia coli; [4]", "value": 48, "unit": "mm"}, {"measurement": "inhibition zone", "setting": "Bacillus Cereus; [2]", "value": 24, "unit": "mm"}, {"measurement": "inhibition zone", "setting": "Bacillus Cereus; [3]", "value": 27, "unit": "mm"}, {"measurement": "inhibition zone", "setting": "Bacillus Cereus; [4]", "value": 40, "unit": "mm"}]}
